From patent US10219516B2, “Molecules having pesticidal utility, and intermediates, compositions, and processes, related thereto” (priority 2015, dated 2019)

Legend:
Type in all cases: in vivo
[1] = test system: Beet Armyworm (Spodoptera exigua, LAPHEG); experiment: Bioassay on Beet Armyworm (BAW), 128-well diet tray assay; details: Species BAW (Beet Armyworm), read-out: BAW (Biological Results, rating)
How it was run: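 Second-instar larvae, one to five per well, placed on artificial diet surface-treated with 50 μg/cm^2 compound applied in 90:10 acetone-water and dried. Held 5–7 days at 25° C., 14:10 light-dark. Percent mortality recorded per well and averaged over eight wells.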

[2] = test system: Cabbage Looper (Trichoplusia ni, TRIPNI); experiment: Bioassay on Cabbage Looper (CL), 128-well diet tray assay; details: Trichoplusia ni; Species CL (Cabbage Looper); read-out: CL (Biological Results, rating)
How it was run: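 Percent mortality, averaged across eight replicate wells, was scored after five to seven days at 25° C. under a 14:10 light-dark cycle. Each well held one to five second instar larvae on artificial diet treated at 50 μg/cm^2 with compound from 90:10 acetone-water, allowed to dry before infestation.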

[3] = test system: Yellow Fever Mosquito (Aedes aegypti, AEDSAE); experiment: Bioassay on Yellow Fever Mosquito (YFM), 96-well plate larval assay; details: Species YFM (Yellow Fever Mosquito)
How it was run: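 Each well was scored for mortality after 3 days at room temperature under a non-evaporative lid. Test molecules came from DMSO masters (4000 ppm stock) diluted with water/acetone 90:10 and dispensed into six replicate plates, which were then infested with roughly 1-day-old larvae in liver-powder water.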

Row | Structure (SMILES) | pest or weed control at 50 µg/cm2 [1] [%] | pest or weed control at 50 µg/cm2 [2] [%] | YFM (Biological Results, rating) [3]
1 | Cc1cc(NC(=O)OC(C)(C)C)ccc1NC(=O)c1cc(NC(=O)[C@H]2[C@H](c3ccc(Cl)c(Cl)c3)C2(Cl)Cl)ccc1Cl [F277, tert-Butyl (4-(2-chloro-5-((1R,3R)-2,2-dichloro-3-(3,4-dichlorophenyl)cyclopropane-1-carboxamido)benzamido)-3-methylphenyl)carbamate] | 50 to 100 | 50 to 100 | A (80-100)
2 | O=C(Nc1ccc(F)cc1F)c1cc(NC(=O)[C@H]2[C@H](c3cc(Cl)c(Cl)c(Cl)c3)C2(Cl)Cl)ccc1Cl [F281, 2-Chloro-5-((1R,3R)-2,2-dichloro-3-(3,4,5-trichlorophenyl)cyclopropane-1-carboxamido)-N-(2,4-difluorophenyl)benzamide] | 50 to 100 | 50 to 100 | A (80-100)
3 | O=C(Nc1ccc(F)cc1F)c1cc(NC(=O)[C@@H]2[C@@H](c3cc(Cl)c(Cl)c(Cl)c3)C2(Cl)Cl)ccc1Cl [F282, 2-Chloro-5-((1S,3S)-2,2-dichloro-3-(3,4,5-trichlorophenyl)cyclopropane-1-carboxamido)-N-(2,4-difluorophenyl)benzamide] | 50 to 100 | 50 to 100 | A (80-100)
4 | Cc1cc(N)ccc1NC(=O)c1cc(NC(=O)[C@H]2[C@H](c3cc(Cl)cc(Cl)c3)C2(Cl)Cl)ccc1Cl [F283, N-(4-Amino-2-methylphenyl)-2-chloro-5-((1R,3R)-2,2-dichloro-3-(3,5-dichlorophenyl)cyclopropane-1-carboxamido)benzamide] | 50 to 100 | 50 to 100 | A (80-100)
5 | Cc1cc(N)ccc1NC(=O)c1cc(NC(=O)[C@@H]2[C@@H](c3cc(Cl)cc(Cl)c3)C2(Cl)Cl)ccc1Cl [F284, N-(4-Amino-2-methylphenyl)-2-chloro-5-((1S,3S)-2,2-dichloro-3-(3,5-dichlorophenyl)cyclopropane-1-carboxamido)benzamide] | 50 to 100 | 50 to 100 | A (80-100)
6 | Cc1cc(N)ccc1NC(=O)c1cc(NC(=O)[C@H]2[C@H](c3ccc(Cl)c(Cl)c3)C2(Cl)Cl)ccc1Cl [F285, N-(4-Amino-2-methylphenyl)-2-chloro-5-((1R,3R)-2,2-dichloro-3-(3,4-dichlorophenyl)cyclopropane-1-carboxamido)benzamide] | 50 to 100 | 50 to 100 | A (80-100)
7 | Cc1cc(N)ccc1NC(=O)c1cc(NC(=O)[C@H]2[C@H](c3cc(Cl)c(Cl)c(Cl)c3)C2(Cl)Cl)ccc1Cl [F286, N-(4-Amino-2-methylphenyl)-2-chloro-5-((1R,3R)-2,2-dichloro-3-(3,4,5-trichlorophenyl)cyclopropane-1-carboxamido)benzamide] | 50 to 100 | 50 to 100 | A (80-100)
8 | Cc1cc(NC(=O)OC(C)(C)C)ccc1NC(=O)c1cc(NC(=O)[C@H]2[C@H](c3ccc(F)c(Cl)c3)C2(Cl)Cl)ccc1Cl [F290, tert-Butyl (4-(2-chloro-5-((1R,3R)-2,2-dichloro-3-(3-chloro-4-fluorophenyl)cyclopropane-1-carboxamido)benzamido)-3-methylphenyl)carbamate] | 50 to 100 | 50 to 100 | A (80-100)
9 | Cc1cc(N)ccc1NC(=O)c1cc(NC(=O)[C@H]2[C@H](c3ccc(F)c(Cl)c3)C2(Cl)Cl)ccc1Cl [F291, N-(4-Amino-2-methylphenyl)-2-chloro-5-((1R,3R)-2,2-dichloro-3-(3-chloro-4-fluorophenyl)cyclopropane-1-carboxamido)benzamide] | 50 to 100 | 50 to 100 | A (80-100)
10 | O=C(Nc1ncc(F)cc1F)c1cc(NC(=O)[C@H]2[C@H](c3ccc(Cl)c(Cl)c3)C2(Cl)Cl)ccc1Cl [F310, 2-Chloro-5-((1R,3R)-2,2-dichloro-3-(3,4-dichlorophenyl)cyclopropane-1-carboxamido)-N-(3,5-difluoropyridin-2-yl)benzamide] | 50 to 100 | 50 to 100 | A (80-100)
11 | O=C(Nc1ncc(F)cc1F)c1cc(NC(=O)[C@H]2[C@H](c3cc(Cl)c(Cl)c(Cl)c3)C2(Cl)Cl)ccc1Cl [F311, 2-Chloro-5-((1R,3R)-2,2-dichloro-3-(3,4,5-trichlorophenyl)cyclopropane-1-carboxamido)-N-(3,5-difluoropyridin-2-yl)benzamide] | 50 to 100 | 50 to 100 | A (80-100)
12 | Nc1c(F)ccc(NC(=O)c2cc(NC(=O)[C@H]3[C@H](c4cc(Cl)cc(Cl)c4)C3(Cl)Cl)ccc2Cl)c1F [F313, N-(3-Amino-2,4-difluorophenyl)-2-chloro-5-((1R,3R)-2,2-dichloro-3-(3,5-dichlorophenyl)cyclopropane-1-carboxamido)benzamide] | 50 to 100 | 50 to 100 | A (80-100)
13 | Nc1c(F)ccc(NC(=O)c2cc(NC(=O)[C@H]3[C@H](c4ccc(Cl)c(Cl)c4)C3(Cl)Cl)ccc2Cl)c1F [F314, N-(3-Amino-2,4-difluorophenyl)-2-chloro-5-((1R,3R)-2,2-dichloro-3-(3,4-dichlorophenyl)cyclopropane-1-carboxamido)benzamide] | 50 to 100 | 50 to 100 | A (80-100)
14 | Nc1c(F)ccc(NC(=O)c2cc(NC(=O)[C@H]3[C@H](c4cc(Cl)c(Cl)c(Cl)c4)C3(Cl)Cl)ccc2Cl)c1F [F315, N-(3-Amino-2,4-difluorophenyl)-2-chloro-5-((1R,3R)-2,2-dichloro-3-(3,4,5-trichlorophenyl)cyclopropane-1-carboxamido)benzamide] | 50 to 100 | 50 to 100 | A (80-100)
15 | O=C(Nc1ncc(F)cc1F)c1cc(NC(=O)[C@H]2[C@H](c3ccc(F)c(Cl)c3)C2(Cl)Cl)ccc1Cl [F316, 2-Chloro-5-((1R,3R)-2,2-dichloro-3-(3-chloro-4-fluorophenyl)cyclopropane-1-carboxamido)-N-(3,5-difluoropyridin-2-yl)benzamide] | 50 to 100 | 50 to 100 | A (80-100)
16 | Nc1c(F)ccc(NC(=O)c2cc(NC(=O)[C@H]3[C@H](c4ccc(F)c(Cl)c4)C3(Cl)Cl)ccc2Cl)c1F [F317, N-(3-Amino-2,4-difluorophenyl)-2-chloro-5-((1R,3R)-2,2-dichloro-3-(3-chloro-4-fluorophenyl)cyclopropane-1-carboxamido)benzamide] | 50 to 100 | 50 to 100 | A (80-100)
17 | Nc1cc(C(F)(F)F)cc(NC(=O)c2cc(NC(=O)C3C(c4cc(Cl)cc(Cl)c4)C3(Cl)Cl)ccc2Cl)n1 (stereo not drawn) [F328, N-(6-Amino-4-(trifluoromethyl)pyridin-2-yl-2-chloro-5-(trans-2,2-dichloro-3-(3,5-dichlorophenyl)cyclopropane-1-carboxamido)benzamide] | 50 to 100 | 50 to 100 | A (80-100)
18 | Nc1cc(NC(=O)c2cc(NC(=O)[C@H]3[C@H](c4cc(Cl)cc(Cl)c4)C3(Cl)Cl)ccc2Cl)c(F)cc1F [F353, N-(5-Amino-2,4-difluorophenyl)-2-chloro-5-((1R,3R)-2,2-dichloro-3-(3,5-dichlorophenyl)cyclopropane-1-carboxamido)benzamide] | 50 to 100 | 50 to 100 | A (80-100)
19 | Nc1cc(NC(=O)c2cc(NC(=O)[C@H]3[C@H](c4ccc(Cl)c(Cl)c4)C3(Cl)Cl)ccc2Cl)c(F)cc1F [F354, N-(5-Amino-2,4-difluorophenyl)-2-chloro-5-((1R,3R)-2,2-dichloro-3-(3,4-dichlorophenyl)cyclopropane-1-carboxamido)benzamide] | 50 to 100 | 50 to 100 | A (80-100)
20 | O=C(Nc1cncc([N+](=O)[O-])c1)c1cc(NC(=O)[C@H]2[C@H](c3cc(Cl)cc(Cl)c3)C2(Cl)Cl)ccc1Cl [F358, 2-Chloro-5-((1R,3R)-2,2-dichloro-3-(3,5-dichlorophenyl)cyclopropane-1-carboxamido)-N-(5-nitropyridin-3-yl)benzamide] | 50 to 100 | 50 to 100 | A (80-100)
21 | O=C(Nc1cncc([N+](=O)[O-])c1)c1cc(NC(=O)[C@H]2[C@H](c3ccc(Cl)c(Cl)c3)C2(Cl)Cl)ccc1Cl [F359, 2-Chloro-5-((1R,3R)-2,2-dichloro-3-(3,4-dichlorophenyl)cyclopropane-1-carboxamido)-N-(5-nitropyridin-3-yl)benzamide] | 50 to 100 | 50 to 100 | A (80-100)
22 | Nc1c(F)cc(F)cc1NC(=O)c1cc(NC(=O)[C@H]2[C@H](c3cc(Cl)cc(Cl)c3)C2(Cl)Cl)ccc1Cl [F360, N-(2-Amino-3,5-difluorophenyl)-2-chloro-5-((1R,3R)-2,2-dichloro-3-(3,5-dichlorophenyl)cyclopropane-1-carboxamido)benzamide] | 50 to 100 | 50 to 100 | A (80-100)
